Reference: BindingDB's records for doi:10.7270/Q26H4FT9 (Nmmlsc, 2009)

Target: Cell division control protein 42 homolog (Homo sapiens, UniProt P60953)
Test: Cdc42 activated mutant GTP-binding inhibitors, SAR follow-up, biochemical, bead-based multiplex flow cytometry, additional SAR set (AID 2021)

Sequence of Cell division control protein 42 homolog (P60953 whole entry): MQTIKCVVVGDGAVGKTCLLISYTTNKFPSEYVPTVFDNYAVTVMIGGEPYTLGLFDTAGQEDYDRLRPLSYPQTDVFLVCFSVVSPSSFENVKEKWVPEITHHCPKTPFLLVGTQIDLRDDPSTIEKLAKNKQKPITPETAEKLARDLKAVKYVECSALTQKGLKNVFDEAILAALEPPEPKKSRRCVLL

| SMILES | EC50 [µM] |
| --- | --- |
| O=C1N=c2c(Br)cccc2=C1c1[nH]c2ccccc2c1NO [7-bromanyl-3-[3-(oxidanylamino)-1H-indol-2-yl]indol-2-one] | 55.1 |
| O=C1Nc2ccccc2/C1=C1/Nc2ccccc2C1=O [2-[(3Z)-2-oxo-2,3-dihydro-1H-indol-3-ylidene]-2,3-dihydro-1H-indol-3-one] | 30 |
| O=C1Nc2c(F)cccc2C1=C1Nc2ccccc2C1=O | 30 |
| O=C1N=c2c(F)cccc2=C1c1[nH]c2ccccc2c1NO [7-fluoro-3-[3-(hydroxyamino)-1H-indol-2-yl]-2-indolone] | 30 |
| O=C1N=c2ccccc2=C1c1[nH]c2ccccc2c1NO [3-[3-(hydroxyamino)-1H-indol-2-yl]-2-indolone] | 30 |

Continued, values first:

| EC50 [µM] | SMILES |
| --- | --- |
| 5.26 | O=C1NC(=O)/C(=C2/C(=O)Nc3ccccc32)N1 |
| 30 | O=C1Nc2c(Br)cccc2C1=C1Nc2ccccc2C1=O |
| 30 | O=C1N=c2ccc(Br)cc2=C1c1[nH]c2ccccc2c1NO [5-bromanyl-3-[3-(oxidanylamino)-1H-indol-2-yl]indol-2-one] |
| 30 | O=C1Nc2ccc(Br)cc2C1=C1Nc2ccccc2C1=O |
| 30 | O=C1NC(=S)N/C1=C1\C(=O)Nc2ccccc21 [(3Z)-3-(5-oxo-2-sulfanylideneimidazolidin-4-ylidene)-1H-indol-2-one] |
| 30 | O=C1N=c2c(Cl)cccc2=C1c1[nH]c2ccccc2c1NO [7-chloro-3-[3-(hydroxyamino)-1H-indol-2-yl]-2-indolone] |
| 30 | O=C1Nc2c(Cl)cccc2C1=C1Nc2ccccc2C1=O |
